Measured values taken from patent publication US11407771B2 (priority 2018, dated 2022).
Read-outs that look alike come from different tables or passages of the source.

Target: MAPK13 (Homo sapiens (Human), UniProt O15264)
Sequence (O15264 whole entry): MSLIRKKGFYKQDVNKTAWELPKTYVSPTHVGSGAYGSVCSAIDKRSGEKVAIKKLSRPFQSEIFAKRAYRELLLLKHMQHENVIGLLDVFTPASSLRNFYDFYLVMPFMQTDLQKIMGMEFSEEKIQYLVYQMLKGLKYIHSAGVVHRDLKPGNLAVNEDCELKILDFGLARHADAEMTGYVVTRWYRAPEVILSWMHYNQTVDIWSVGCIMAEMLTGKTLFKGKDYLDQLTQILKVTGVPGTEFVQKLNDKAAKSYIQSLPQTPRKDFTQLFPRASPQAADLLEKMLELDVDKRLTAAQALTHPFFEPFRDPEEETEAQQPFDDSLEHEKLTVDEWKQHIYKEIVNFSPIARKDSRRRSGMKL

Row | Compound | IC50 (read-out: MAPK13 inhibition) [nM] | IC50 (read-out: MAPK13 IC50) [nM]
1 | CC(C)(C)c1cc(NC(=O)Nc2ccc(Oc3ccncc3)cc2F)n(-c2ccc(F)cc2)n1 [Compound 303, 1-[5-tert-Butyl-2-(4-fluoro-phenyl)-2H-pyrazol-3-yl]-3-[2-fluoro-4-(pyridin-4-yloxy)-phenyl]-urea] | < 250 | 
2 | CCNC(=O)Nc1cc(CCc2cnc(NC(=O)Nc3cc(C(C)(C)C)nn3CC3CC3)s2)ccn1 [Compound 340, 1-[4-(2-{2-[3-(5-tert-Butyl-2-cyclopropylmethyl-2H-pyrazol-3-yl)-uredo]-thiazol-5-yl}-ethyl)-pyridin-2-yl]-3-ethyl-urea] | < 250 | 
3 | CC(C)(C)c1cc(NC(=O)Nc2ccc(Oc3ccncc3)cc2F)n(CC2CC2)n1 [Compound 310, 1-(5-tert-Butyl-2-cyclopropylmethyl-2H-pyrazol-yl)-3-[2-fluoro-4-(pyridin-4-yloxy)-phenyl]-urea] | < 250 | 
4 | Cn1nc(C(C)(C)C)cc1NC(=O)Nc1ncc(CCc2ccnc(NC(=O)C3CC3)c2)s1 [Compound 345, Cyclopropanecarboxylic acid [4-(2-{2-[3-(5-tert-butyl-2-methyl-2H-pyrazol-3-yl)-ureido]-thiazol-5-yl}-ethyl)-pyridin-2-yl]-amide] | < 250 | 
5 | CC(C)C(=O)Nc1cc(CCc2cnc(NC(=O)Nc3cc(C(C)(C)C)nn3C)s2)ccn1 [Compound 349, N-[4-(2-{2-[3-(5-tert-Butyl-2-methyl-2H-pyrazol-3-yl)-ureido]-thiazol-5-yl}-ethyl)-pyridin-2-yl]-isobutyramide] | < 250 | 
6 | COC(=O)Nc1cc(Oc2ccc(NC(=O)Nc3cc(C4(C)COC4)nn3-c3ccc(C)cc3)cc2)ccn1 [Compound 261, [4-(4-{3-[5-(3-Methyl-oxetan-3-yl)-2-p-tolyl-2H-pyrazol-3-yl]-ureido}-phenoxy)-pyridin-2-yl]-carbainic acid methyl ester] | < 250 | 
7 | Cc1ccc(-n2nc(C(C)(C)C)cc2NC(=O)Nc2ccc(Oc3ccncc3C)cc2F)cc1 [Compound 300, 1-(5-tert-Butyl-2-p-tolyl-2H-pyrazol-3-yl)-3-[2-fluoro-4-(3-methyl-pyridin-4-yloxy)-phenyl]-urea] | < 250 | 
8 | Cc1ccc(-n2nc(C(C)(C)C)cc2NC(=O)Nc2ncc(CCc3ccnc(NC(=O)C4CCC4)c3)s2)cc1 [Compound 332, Cyclobutanecarboxylic acid [4-(2-{2-[3-(5-tert-butyl-2-p-tolyl-2H-pyrazol-3-yl)-ureido]-thiazol-5-yl}-ethyl)-pyridin-2-yl]-amide] | < 250 | 18
9 | CC(C)(C)c1ccc(Cl)c(NC(=O)Nc2ccc(Oc3ccnc(NC(=O)CO)c3)cc2F)c1 [Compound 426, N-(4-{4-[3-(5-tert-Butyl-2-chloro-phenyl)-ureido]-3-fluoro-phenoxy}-pyridin-2-yl)-2-hydroxy-acetamide] | < 250 | 
10 | CCOC(=O)Nc1cc(CCc2cnc(NC(=O)Nc3cc(C(C)(C)C)on3)s2)ccn1 [Compound 364, [4-(2-{2-[3-(5-tert-Butyl-isoxazol-3-yl)-ureido]-thiazol-5-yl}-ethyl)-pyridin-2-yl]-carbamic acid ethyl ester] | < 250 | 
11 | CC(=O)Nc1cc(CCc2cnc(NC(=O)Nc3cc([Si](C)(C)C)ccc3F)s2)ccn1 [Compound 400, N-[4-(2-{2-[3-(2-Fluoro-5-trimethylsilanyl-phenyl)-ureido]-thiazol-5-yl}-ethyl)-pyridin-2-yl]-acetamide] | < 250 | 
12 | CC(=O)Nc1cc(CCc2ccc(NC(=O)Nc3cc(C(C)(C)C)nn3C(C)C)c(F)c2)ccn1 [Compound 371, N-[4-(2-{4-[3-(5-tert-Butyl-2-isopropyl-2H-pyrazol-3-yl)-ureido]-3-fluoro-phenyl}-ethyl)-pyridin-2-yl]-acetamide] | > 1000 | 
13 | Cc1ccc(-n2nc(C3(C)CSC3)cc2NC(=O)Nc2ncc(CCc3ccncc3)s2)cc1 [Compound 273, 1-[5-(3-Methyl-thietan-3-yl)-2-p-tolyl-2H-pyrazol-3-yl]-3-[5-(2-pyridin-4-yl-ethyl)-thiazol-2-yl]-urea] | < 250 | 
14 | CC(=O)Nc1cc(CCc2cnc(NC(=O)Nc3cc(C(C)(C)C)nn3CC3CC3)s2)ccn1 [Compound 325, N-[4-(2-{2-[3-(5-tert-Butyl-2-cyclopropylmethyl-2H-pyrazol-3-yl)-ureido]-thiazol-5-yl}-ethyl)-pyridin-2-yl]-acetamide] | < 250 | 
15 | CC(=O)Nc1cc(CCc2ccc(NC(=O)Nc3cc(C(C)(C)C)nn3CC3CC3)c(F)c2)ccn1 [Compound 370, N-[4-(2-{4-[3-(5-tert-Butyl-2-cyclopropylmethyl-2H-pyrazol-3-yl)-ureido]-3-fluoro-phenyl}-ethyl)-pyridin-2-yl]-acetamide] | > 1000 | 
16 | CC(=O)Nc1cc(CCc2ccc(NC(=O)Nc3cc(C(C)(C)C)nn3-c3ccc(C)cc3)c(F)c2)ccn1 [Compound 329, N-[4-(2-{4-[3-(5-tert-Butyl-2-p-tolyl-2H-pyrozol-3-yl)-ureido]-3-fluoro-phenyl}-ethyl)-pyridin-2-yl]-acetamide] | < 250 | 
17 | CC(=O)Nc1cc(CCc2ccc(NC(=O)Nc3cc(C(F)(F)F)ccc3F)c(F)c2)ccn1 [Compound 360, N-[4-(2-{3-Fluoro-4-[3-(2-fluoro-5-trifluoromethyl-phenyl)-ureido]-phenyl}-ethyl)-pyridin-2-yl]-acetamide] | > 1000 | 

Row | Compound | IC50 (read-out: MAPK13 inhibition) [nM] | IC50 (read-out: MAPK13 IC50) [nM]
18 | Cc1ccc(-n2nc(C(C)(C)C)cc2NC(=O)Nc2ncc(CCc3ccnc(NC(=O)N4CCCC4)c3)s2)cc1 [Compound 337, Pyrrolidine-1-carboxylic acid [4-(2-{2-[3-(5-tert-butyl-2-p-tolyl-2H-pyrazol-3-yl)-ureido]-thiazol-5-yl}-ethyl)-pyridin-2-yl]-amide] | < 250 | 
19 | CC(=O)Nc1cc(Oc2ccc(NC(=O)Nc3cc([Si](C)(C)C)ccc3F)c(F)c2)ccn1 [Compound 399, N-(4-{3-Fluoro-4-[3-(2-fluoro-5-trimethylsilanyl-phenyl)-ureido]-phenoxy}-pyridin-2-yl)-acetamide] | < 250 | 
20 | COCC(=O)Nc1cc(Oc2ccc(NC(=O)Nc3cc(C4(C)CSC4)nn3-c3ccc(C)cc3)cc2)ccn1 [Compound 260, 2-Methoxy-N-[4-(4-{3-[5-(3-methyl-thietan-3-yl)-2-p-tolyl-2H-pyrazol-3-yl]-ureido}-phenoxy)-pyridin-2-yl]-acetamide] | < 250 | 
21 | CC(=O)Nc1cc(COc2ccc(NC(=O)Nc3cc(C(C)(C)C)nn3-c3ccc(C)cc3)c(F)c2)ccn1 [Compound 402, N-(4-{4-[3-(5-tert-Butyl-2-p-tolyl-2H-pyrazol-3-yl)-ureido]-3-fluoro-phenoxymethyl}-pyridin-2-yl)-acetamide] | < 250 | 
22 | CC(=O)Nc1cc(CCc2ccc(NC(=O)Nc3cc(C(C)(C)C)on3)c(F)c2)ccn1 [Compound 358, N-[4-(2-{4-[3-(5-tert-Butyl-isoxazol-3-yl)-ureido]-3-fluoro-phenyl}-ethyl)-pyridin-2-yl]-acetamide] | > 1000 | 
23 | COCCC(=O)Nc1cc(Oc2ccc(NC(=O)Nc3cc(C(C)(C)C)ccc3Cl)c(F)c2)ccn1 [Compound 427, N-(4-{4-[3-(5-tert-Butyl-2-chloro-phenyl)-ureido]-3-fluoro-phenoxy}-pyridin-2-yl)-3-methoxy-propionamide] | < 250 | 
24 | CCOC(=O)Nc1cc(CCc2cnc(NC(=O)Nc3cc(C(C)(C)C)nn3C)s2)ccn1 [Compound 335, [4-(2-{2-[3-(5-tert-Butyl-2-methyl-2H-pyrazol-3-yl)-ureido]-thiazol-5-yl}-ethyl)-pyridin-2-yl]-carbamic acid ethyl ester] | < 250 | 
25 | COC(=O)Nc1cc(Oc2ccc(NC(=O)Nc3cc(C4(C)CSC4)nn3-c3ccc(C)cc3)cc2)ccn1 [Compound 262, [4-(4-{3-[5-(3-Methyl-thietan-3-yl)-2-p-tolyl-2H-pyrazol-3-yl]-ureido}-phenoxy)-pyridin-2-yl]-carbamic acid methyl ester] | < 250 | 
26 | CC(C)(C)c1cc(NC(=O)Nc2ncc(CCc3ccnc(NC(=O)C4CC4)c3)s2)n(-c2ccc(Cl)cc2)n1 [Compound 390, N-[4-[2-[2-[[5-tert-butyl-2-(4-chlorophenyl)pyrazol-3-yl]carbamoylamino]thiazol-5-yl]ethyl]-2-pyridyl]cyclopropanecarboxamide] | < 250 | 
27 | CC(=O)Nc1cc(Oc2ccc(NC(=O)Nc3cc(C4CC4)ccc3Cl)c(F)c2)ccn1 [Compound 423, N-(4-{4-[3-(2-Chloro-5-cyclopropyl-phenyl)-ureido]-3-fluoro-phenoxy}-pyridin-2-yl)-acetamide] | < 250 | 
28 | CC(C)(C)c1cc(NC(=O)Nc2ncc(CCc3ccnc(NC(=O)C4CC4)c3)s2)[nH]n1 [Compound 368, Cyclopropanecarboxylic acid [4-(2-{2-[3-(5-tert-butyl-2H-pyrazol-3-yl)-ureido]-thiazol-5-yl}-ethyl)-pyridin-2-yl]-amide] | < 250 | 
29 | CC(=O)Nc1cc(CCc2cnc(NC(=O)Nc3cc(C(C)(C)C)no3)s2)ccn1 [Compound 382] | < 250 | 
30 | CC(C)(C)c1cc(NC(=O)Nc2ccc(Oc3ccnc(N)c3)cc2F)n(-c2cccc(F)c2)n1 [Compound 304, 1-[4-(2-Amino-pyridin-4-yloxy)-2-fluoro-phenyl]-3-[5-tert-butyl-2-(3-fluoro-phenyl)-2H-pyrazol-3-yl]-urea] | < 250 | 
31 | COC(=O)Nc1cc(CCc2ccc(NC(=O)Nc3cc(C(C)(C)C)nn3-c3ccc(C)cc3)c(F)c2)ccn1 [Compound 315, [4-(2-{4-[3-(5-tert-Butyl-2-p-tolyl-2H-pyrazol-3-yl)-ureido]-3-fluoro-phenyl}-ethyl)-pyridin-2-yl]-carbamic acid methyl ester] | > 1000 | 
32 | CC(C)n1nc(C(C)(C)C)cc1NC(=O)Nc1ccc(CCc2ccnc(NC(=O)C3CC3)c2)cc1F [Compound 375, Cyclopropanecarboxylic acid [4-(2-{4-[3-(5-tert-butyl-2-isopropyl-2H-pyrazol-3-yl)-ureido]-3-fluoro-phenyl}-ethyl)-pyridin-2-yl]-amide] | > 1000 | 
33 | CCOC(=O)Nc1cc(CCc2cnc(NC(=O)Nc3cc(C(F)(F)F)ccc3F)s2)ccn1 [Compound 357, [4-(2-{2-[3-(2-Fluoro-5-trifluoromethyl-phenyl)-ureido]-thiazol-5yl}-ethyl)-pyridin-2-yl]-carbamic acid ethyl ester] | > 1000 | 
